# Where two headings read alike, the source gives them in different places. Marks after values point to notes of the source that are not given here.
# Columns and labels:
# [1] = type: in vitro ADME, murine; conditions: 1 h
# Protocol: (§1) To evaluate the label’s stability, 10 μL (0.25 μg) of radiolabeled conjugates was incubated with 300× molar excess of cysteine or with PBS for 1 h at room temperature. The test was run in triplicate. The release of free technetium-99m was controlled by using iTLC and radio-HPLC analysis. The stability in serum was analyzed by mixing the radioconjugates (0.25 μg in 10 μL) with murine serum or PBS (40 μL) as a control. The samples were incubated for 1 h at 37 °C and analyzed by iTLC. The experiment was performed in triplicate. The octanol–water distribution coefficient (Log D) was determined experimentally by the addition of 100 pmol of the radiolabeled tracer to an Eppendorf tube containing PBS (500 μL) and n-octanol (500 μL), pH ∼ 7.4. The solution was vortexed and centrifuged, and aliquots (50 μL) from each phase were collected and measured using a gamma counter. The experiment was performed in triplicate.
# physchem = type: physicochemical; conditions: pH 7.4
# Protocol: as §1
# PC3-pip cells [2] = test: in vitro binding specificity test; type: cell-based; conditions: 1 h, 37 °C
# Protocol: For the in vitro binding specificity test, approximately 8 × 10^5 PC3-pip cells per well were seeded 24 h before the experiment. […] Technetium-99m-labeled tracers were added to each well to reach a concentration of 2 nM. After 1 h of incubation at 37 °C, cells were washed with PBS solution, detached, and collected. Cell-associated activity was measured using a gamma counter and presented as the percentage of added activity.
# PSMA = biological target: T1, PSMA (Homo sapiens, UniProt Q04609); test: binding kinetics in real time on living PC3-pip cells (LigandTracer Yellow)
# T1 construct: expressed in transfected cells; host or cells: PC3-pip (PSMA-transfected PC-3 prostate carcinoma cells), from Prof; Martin G. Pomper, Johns Hopkins University
# Protocol: The binding kinetics of technetium-99m-labeled BQ0413, BQ0500, and BQ0501 were determined in PC3-pip cells in real-time using LigandTracer Yellow (Ridgeview Instruments AB, Uppsala, Sweden). The activity binding was recorded with 5 nM radiolabeled tracers for 150 min. After the binding kinetics were measured, the medium containing the labeled tracer was replaced with fresh medium, and the dissociation was monitored over 7 h. The association rate (k a) and the dissociation rate (k d) were computed using a 1:2 kinetic binding model in TraceDrawer software (Ridgeview Instruments AB, Uppsala, Sweden), and the equilibrium dissociation constant K D was calculated.
# PC3-pip cells [3] = test: cellular processing (membrane-bound / internalized activity); type: cell-based; conditions: 2 nM, continuous incubation, after 8 h
# Protocol: To evaluate cellular processing of technetium-99m-labeled BQ0500 and BQ0501, PC3-pip cells were incubated with the radiolabeled tracer (2 nM), and at 1, 2, 4, and 8 h of continuous incubation, the membrane-bound and internalized fractions were collected as previously described using 4 M urea solution in 0.2 M glycine buffer (pH 2) to collect membrane-bound fraction and 1 N solution of NaOH to collect the internalized fraction. The activity in the samples was measured, and the percentage of membrane-bound and internalized activity was calculated. The experiments were performed in triplicate.
# PC3-pip xenografts = test: biodistribution and tumor targeting in PC3-pip tumor-bearing mice; type: in vivo
# From the text: The injected masses for the in vivo experiments were chosen based on the findings for [^99mTc]-Tc-BQ0413: to study the general biodistribution of radiolabeled tracers in normal mice (NMRI), 40 pmol of tracer was used to avoid blocking of PSMA-mediated uptake in kidneys and salivary glands, to study tumor targeting, 5 nmol of tracer was used to decrease uptake in PSMA-expressing organs.
# PSMA-expressing PCa xenografts were implanted in BALB/c nu/nu mice by subcutaneous injection of the PC3-pip cell suspension in PBS (10^7 cells/animal in 100 μL). The average animal weight in the experiment was 18 ± 2 g. The average tumor weight was 0.4 ± 0.2 g. For in vivo specificity control, 10^7 cells/animal PSMA-negative PC-3 cells were implanted. The average animal weight was 18 ± 1 g. The average tumor weight was 0.1 ± 0.1 g. Four mice per data point were used in the in vivo experiments.
# For tumor-bearing mice, each mouse was intravenously injected with 5 nmol of [^99mTc]-Tc-BQ0413, [^99mTc]-Tc-BQ0500, and [^99mTc]-Tc-BQ0501 (60 kBq; the mass of the injected compound was adjusted with an unlabeled tracer). The mice were euthanized after lethal intraperitoneal injection of ketamine/xylazine, followed by exsanguination 1 and 3 h pi, similarly to the procedure described above.
# [4] = PC3-pip tumor-bearing mice, 5 nmol/mouse iv, 1 h pi
# [5] = PC3-pip tumor-bearing mice, 5 nmol/mouse iv, 3 h pi
# [6] = PC3-pip tumor-bearing mice, 5 nmol/mouse iv, 3 h pi, listed as [99mTc]Tc-BQ0501
# T1 sequence (Q04609 whole entry): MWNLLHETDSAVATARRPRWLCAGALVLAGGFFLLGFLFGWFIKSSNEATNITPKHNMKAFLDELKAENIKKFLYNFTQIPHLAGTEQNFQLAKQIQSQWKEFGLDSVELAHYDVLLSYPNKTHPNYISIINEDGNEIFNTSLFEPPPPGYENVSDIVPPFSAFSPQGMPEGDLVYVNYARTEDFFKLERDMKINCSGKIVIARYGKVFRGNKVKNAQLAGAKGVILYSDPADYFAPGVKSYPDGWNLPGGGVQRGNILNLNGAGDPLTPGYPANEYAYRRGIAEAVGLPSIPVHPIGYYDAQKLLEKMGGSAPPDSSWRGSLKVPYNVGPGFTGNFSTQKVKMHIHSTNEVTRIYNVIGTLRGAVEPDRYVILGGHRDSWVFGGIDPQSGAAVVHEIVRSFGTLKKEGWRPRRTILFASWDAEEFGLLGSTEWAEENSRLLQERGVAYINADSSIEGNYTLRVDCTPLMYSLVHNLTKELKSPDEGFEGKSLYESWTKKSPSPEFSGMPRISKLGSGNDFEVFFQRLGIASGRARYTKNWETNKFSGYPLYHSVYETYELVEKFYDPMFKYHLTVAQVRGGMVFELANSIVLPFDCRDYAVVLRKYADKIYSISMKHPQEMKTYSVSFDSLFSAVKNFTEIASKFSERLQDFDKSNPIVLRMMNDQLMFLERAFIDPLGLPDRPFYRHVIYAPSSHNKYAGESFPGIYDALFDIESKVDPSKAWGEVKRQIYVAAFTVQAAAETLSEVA
smiles,measurement,setting,value
"CC(=O)NC(CCCCNC(=O)CNC(=O)C(CO)NC(=O)C(CO)NC(=O)C(CO)NC(=O)CS)C(=O)NCCCCCCCC(=O)NC(Cc1ccc(O)cc1)C(=O)NC(Cc1ccc2ccccc2c1)C(=O)NCCCCC(NC(=O)NC(CCC(=O)O)C(=O)O)C(=O)O (centres unmarked) [[^99mTc]Tc-BQ0501, metal not drawn]",intact tracer in PBS,"[1]; PBS control, 37 °C, n = 3",97.4 ± 0.9%
same,intact tracer in murine serum,"[1]; mouse, 5 µg/mL",98.7 ± 0.6%
same,logD,physchem,-2.4 ± 0.1
same,activity uptake by PC3-pip cells,PC3-pip cells [2]; 2 nM tracer,62 ± 7 % of added activity
same,activity uptake by PC3-pip cells after presaturation with PSMA-11,"PC3-pip cells [2]; 250-fold excess of nonlabeled PSMA-11, 2 nM tracer",significantly (p < 0.0001) decreased
same,B max1 (binding maximum),"PSMA; 5 nM tracer, 1:2 model (1:1 for BQ0413)",492 CPS
same,Kd,"PSMA; 5 nM tracer, 1:2 model (1:1 for BQ0413), read-out: K D1",0.474 nM
same,kon,"PSMA; 5 nM tracer, 1:2 model (1:1 for BQ0413), read-out: k a1 (association rate)",27000 M⁻¹ s⁻¹
same,koff,"PSMA; 5 nM tracer, 1:2 model (1:1 for BQ0413), read-out: k d1 (dissociation rate)",1.2e-05 s⁻¹
same,B max2 (binding maximum),"PSMA; 5 nM tracer, 1:2 model, second interaction",272 CPS
same,Kd,"PSMA; 5 nM tracer, 1:2 model, second interaction, read-out: K D2",3.6 nM
same,kon,"PSMA; 5 nM tracer, 1:2 model, second interaction, read-out: k a2 (association rate)",49000 M⁻¹ s⁻¹
same,koff,"PSMA; 5 nM tracer, 1:2 model, second interaction, read-out: k d2 (dissociation rate)",0.00016 s⁻¹
same,affinity compromised in comparison with [99mTc]Tc-BQ0413,PSMA; PC3-pip cells,3–5 fold
same,Kd,"PSMA; as rounded in comparison table, read-out: K D1",0.5 nM
same,Kd,"PSMA; as rounded in comparison table, read-out: K D2",3.6 nM
same,maximum of internalized activity,PC3-pip cells [3],42–43 % of cell-associated activity
same,activity in carcass,PC3-pip xenografts; [4],8 ± 2 ^b %IA/sample
same,activity in intestines with content,PC3-pip xenografts; [4],9 ± 1 ^b ^e %IA/sample
same,activity uptake in blood,PC3-pip xenografts; [4],1.6 ± 0.5 ^b %IA/g
same,activity uptake in bone,PC3-pip xenografts; [4],0.4 ± 0.1 ^b ^e %IA/g
same,activity uptake in kidney,PC3-pip xenografts; [4],21 ± 6 ^b %IA/g
same,activity uptake in liver,PC3-pip xenografts; [4],1.8 ± 0.7 ^b %IA/g
same,activity uptake in lung,PC3-pip xenografts; [4],1.6 ± 0.4 ^b %IA/g
same,activity uptake in muscle,PC3-pip xenografts; [4],0.3 ± 0.1 ^b %IA/g
same,activity uptake in pancreas,PC3-pip xenografts; [4],0.45 ± 0.05 ^b %IA/g
same,activity uptake in salivary gland,PC3-pip xenografts; [4],"0.6 ± 0.2 ^b ^, ^e %IA/g"
same,activity uptake in small intestines,PC3-pip xenografts; [4],1.4 ± 0.6 ^b ^e %IA/g
same,activity uptake in spleen,PC3-pip xenografts; [4],2.4 ± 0.5 ^b %IA/g
same,activity uptake in stomach,PC3-pip xenografts; [4],0.6 ± 0.2 ^b ^e %IA/g
same,activity uptake in tumor,PC3-pip xenografts; [4],27 ± 7 %IA/g
same,tumor-to-blood ratio,PC3-pip xenografts; [4],19 ± 8 ^b
same,tumor-to-bone ratio,PC3-pip xenografts; [4],"62 ± 18 ^b ^, ^e"
same,tumor-to-kidney ratio,PC3-pip xenografts; [4],1.3 ± 0.5 ^b
same,tumor-to-liver ratio,PC3-pip xenografts; [4],17 ± 7 ^b
same,tumor-to-lung ratio,PC3-pip xenografts; [4],17 ± 6 ^b
same,tumor-to-muscle ratio,PC3-pip xenografts; [4],86 ± 34 ^b
same,tumor-to-pancreas ratio,PC3-pip xenografts; [4],62 ± 24 ^b
same,tumor-to-salivary gland ratio,PC3-pip xenografts; [4],"47 ± 19 ^b ^, ^e"
same,tumor-to-small intestines ratio,PC3-pip xenografts; [4],22 ± 11 ^b
same,tumor-to-spleen ratio,PC3-pip xenografts; [4],12 ± 5 ^b
same,tumor-to-stomach ratio,PC3-pip xenografts; [4],"46 ± 18 ^b ^, ^e"
same,activity in carcass,PC3-pip xenografts; [5],3 ± 1 %IA/sample
same,activity in intestines with content,PC3-pip xenografts; [5],11.0 ± 0.5 ^e %IA/sample
same,activity uptake in blood,PC3-pip xenografts; [5],0.14 ± 0.07 %IA/g
same,activity uptake in bone,PC3-pip xenografts; [5],0.07 ± 0.03 ^e %IA/g
same,activity uptake in kidney,PC3-pip xenografts; [5],4 ± 2 ^e %IA/g
same,activity uptake in liver,PC3-pip xenografts; [5],0.18 ± 0.06 %IA/g
same,activity uptake in lung,PC3-pip xenografts; [5],0.21 ± 0.07 %IA/g
same,activity uptake in muscle,PC3-pip xenografts; [5],0.08 ± 0.04 %IA/g
same,activity uptake in pancreas,PC3-pip xenografts; [5],0.1 ± 0.1 %IA/g
same,activity uptake in salivary gland,PC3-pip xenografts; [5],0.14 ± 0.06 ^e %IA/g
same,activity uptake in small intestines,PC3-pip xenografts; [5],0.17 ± 0.03 %IA/g
same,activity uptake in spleen,PC3-pip xenografts; [5],0.3 ± 0.2 %IA/g
same,activity uptake in stomach,PC3-pip xenografts; [5],0.14 ± 0.06 %IA/g
same,tumor-to-bone ratio,PC3-pip xenografts; [5],515 ± 113 ^e
same,tumor-to-kidney ratio,PC3-pip xenografts; [5],10 ± 2 ^e
same,tumor-to-liver ratio,PC3-pip xenografts; [5],222 ± 89 ^e
same,tumor-to-lung ratio,PC3-pip xenografts; [5],178 ± 61 ^e
same,tumor-to-muscle ratio,PC3-pip xenografts; [5],504 ± 195
same,tumor-to-pancreas ratio,PC3-pip xenografts; [5],463 ± 135 ^e
same,tumor-to-salivary gland ratio,PC3-pip xenografts; [5],302 ± 146 ^e
same,tumor-to-small intestines ratio,PC3-pip xenografts; [5],209 ± 46
same,tumor-to-spleen ratio,PC3-pip xenografts; [5],121 ± 47 ^e
same,tumor-to-stomach ratio,PC3-pip xenografts; [5],287 ± 102 ^e
same,activity in carcass,PC3-pip xenografts; [6],3±1 %IA/sample
same,activity in intestines with content,PC3-pip xenografts; [6],11.0±0.5 %IA/sample
same,activity uptake in blood,PC3-pip xenografts; [6],0.14±0.07 %IA/g
same,activity uptake in bone,PC3-pip xenografts; [6],0.07±0.03 %IA/g
same,activity uptake in kidney,PC3-pip xenografts; [6],4±2 %IA/g
same,activity uptake in liver,PC3-pip xenografts; [6],0.18±0.06 %IA/g
same,activity uptake in lung,PC3-pip xenografts; [6],0.21±0.07 %IA/g
same,activity uptake in muscle,PC3-pip xenografts; [6],0.08±0.04 %IA/g
same,activity uptake in pancreas,PC3-pip xenografts; [6],0.1±0.1 %IA/g
same,activity uptake in salivary gland,PC3-pip xenografts; [6],0.14±0.06 %IA/g
same,activity uptake in small intestines,PC3-pip xenografts; [6],0.17±0.03 %IA/g
same,activity uptake in spleen,PC3-pip xenografts; [6],0.3±0.2 %IA/g
same,activity uptake in stomach,PC3-pip xenografts; [6],0.14±0.06 %IA/g
same,activity uptake in tumor,PC3-pip xenografts; [6],35±4 %IA/g
same,excretion pathway,PC3-pip xenografts; PC3-pip xenografts,predominantly renal

# Source: paper PMC12519282, “Reduction of Negative Charge in Mercaptoacetyl-Based Chelators Influences the Biodistribution of Prostate-Specific Membrane Antigen-Targeting Pseudopeptides Labeled with Technetium-99m” (ACS Pharmacology & Translational Science, 2025)
